# Read-outs that look alike come from different tables or passages of the source.
# Legend:
# GPR139 [1] = target: T1, GPR139 (Homo sapiens, UniProt Q6DWJ6); experiment: Fluo-4 calcium mobilization assay, agonist mode, concentration-response curves in CHO-GPR139 cells; format: cell-based; details: CHO-GPR139 cells; for EC50: at least three independent concentration-response curves in duplicate, read-out: EC50; for Emax ± S.E.M.: normalized to buffer (0%) and 8 μM 1a (100%)
# T1 construct: host or cells: CHO-k1
# T1 sequence (Q6DWJ6 1-353): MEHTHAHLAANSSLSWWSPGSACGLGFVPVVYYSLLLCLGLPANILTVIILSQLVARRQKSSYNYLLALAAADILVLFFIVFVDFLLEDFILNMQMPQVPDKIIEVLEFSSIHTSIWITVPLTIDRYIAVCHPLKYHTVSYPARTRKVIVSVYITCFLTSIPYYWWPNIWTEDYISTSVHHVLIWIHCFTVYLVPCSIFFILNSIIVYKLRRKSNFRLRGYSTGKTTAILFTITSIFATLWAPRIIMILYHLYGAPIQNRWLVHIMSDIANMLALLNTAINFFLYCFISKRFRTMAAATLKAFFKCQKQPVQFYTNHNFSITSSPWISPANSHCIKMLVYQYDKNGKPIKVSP
# Description: (§1) All compounds were tested on a CHO-k1 cell line stably expressing GPR139 (CHO-GPR139)[11] kindly provided by H. Lundbeck A/S, Denmark. GPR139-specific responses were assessed using a CHO-k1 cell line stably expressing the muscarinic acetylcholine receptor M1 (CHO-M1) (The Missouri S&T cDNA Resource Center, # CEM100TN00). The CHO-GPR139 cells were grown in Dulbecco’s modified Eagle’s medium (DMEM) F12-Kaighn’s (ThermoFisher Scientific # 21127) supplemented with 10% dialyzed fetal bovine serum (United States origin; ThermoFisher Scientific # 26400), 1% GlutaMAX-I (100X) (ThermoFisher Scientific # 35050061), and 100 units/mL penicillin and 100 µg/mL streptomycin (ThermoFisher Scientific # 15140122) and 1 mg/mL geneticin (ThermoFisher Scientific # 11811031). The CHO-M1 cells were grown in Ham’s F12 (ThermoFisher Scientific # 21765) supplemented with 10% fetal bovine serum (South American origin; ThermoFisher Scientific # 10270) + 100 units/mL penicillin and streptomycin and 0.25 mg/mL geneticin.
# The Fluo-4 Ca^2+-assay was performed as described previously, with minor modifications. After 1 hour incubation with the Fluo-4 dye, the CHO-GPR139 cells were washed with 100 μL HEPES buffer (Hank’s Balanced Salt Solution (HBBS, ThermoFisher Scientific # 14175053) supplemented with 20 mM HEPES, 1 mM MgCl2, 1 mM CaCl2, pH = 7.4) and the compound library was then added in concentrations between 25–63 μM dissolved in HEPES buffer (supplemented with 2.5 mM probenecid and 1% DMSO) and pre-incubated for 10 min at 37 °C. 33 μL of 3.2 μM 1a were added automatically after baseline measurements. […] This set-up allowed us to identify both antagonists and agonists (Fig. 2).
# Each compound, for which a concentration response curve was made, was tested at least three times in duplicate measurements. After the incubation with the Fluo-4 dye and a wash, 100 μL HEPES buffer (supplemented with 2.5 mM probenecid) was added to each well and incubated for 10 minutes at 37 °C before recording. 33 μL of compounds (4× concentrated) were added automatically after baseline measurements.
# (§2) The Ca^2+ and ERK responses were normalized as indicated and the concentration response curves were fitted by Prism 6 software (GraphPad) using nonlinear regression in a sigmoidal model with variable slope, as has been previously described.
# [2] = target: T2, muscarinic acetylcholine receptor M1 (Homo sapiens, UniProt P11229); experiment: Calcium mobilization counter-screen in CHO-M1 cells; format: cell-based; details: concentration from which the calcium response is nonspecific
# T2 construct: host or cells: CHO-k1
# T2 sequence (P11229 1-460): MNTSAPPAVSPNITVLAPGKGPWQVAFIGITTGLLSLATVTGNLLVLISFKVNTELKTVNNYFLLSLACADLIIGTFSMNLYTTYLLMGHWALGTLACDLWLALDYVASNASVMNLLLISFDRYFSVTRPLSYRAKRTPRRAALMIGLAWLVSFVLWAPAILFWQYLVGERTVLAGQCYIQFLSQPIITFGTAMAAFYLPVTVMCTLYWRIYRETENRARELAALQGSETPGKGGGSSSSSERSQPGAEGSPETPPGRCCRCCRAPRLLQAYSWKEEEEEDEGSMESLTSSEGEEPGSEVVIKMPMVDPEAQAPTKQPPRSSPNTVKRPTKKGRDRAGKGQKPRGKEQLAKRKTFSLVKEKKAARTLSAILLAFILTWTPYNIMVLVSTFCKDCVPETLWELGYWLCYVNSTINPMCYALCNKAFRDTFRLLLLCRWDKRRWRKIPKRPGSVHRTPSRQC
# Description: as §1
# The primary screening of 4,000 diverse screening compounds on GPR139, led us to identify 108 initial actives in GPR139-expressing cells. […] We excluded compounds that had (1) an effect on another simultaneously tested GPCR (data not shown), (2) reactive groups, or (3) poor predicted solubility. 52 of the active compounds were re-purchased for validation, which were tested at three concentrations (100, 50 and 25 μM) using the same methodology as in the screening campaign. […] None of the 11 hits promoted calcium mobilization in the M1 receptor cells (data not shown). The 11 hits were then screened in pure agonist mode (i.e., without the presence of 1a) to evaluate if they were agonists or antagonists (Fig. 3 and Supplementary Table S1). All 11 hits were agonists.
# When screening the compounds as antagonists they were pre-incubated for 10 min as in the HTS. 33 μL of 3.2 μM 1a on the CHO-GPR139 cells or 20 μM carbachol on the CHO-M1 cells were added automatically after baseline measurements.
# GPR139 [3] = target: T1, GPR139; experiment: Phospho-ERK1/2 HTRF assay in CHO-GPR139 cells; format: cell-based; details: ERK phosphorylation; for pEC50 ± SEM / EC50: CHO-GPR139 cells; for EC50: 5 minute stimulation, read-out: EC50; for Emax ± SEM: expressed relative to FBS positive control
# Description: All compounds were tested on a CHO-k1 cell line stably expressing GPR139 (CHO-GPR139)[11] kindly provided by H. Lundbeck A/S, Denmark. GPR139-specific responses were assessed using a CHO-k1 cell line stably expressing the muscarinic acetylcholine receptor M1 (CHO-M1) (The Missouri S&T cDNA Resource Center, # CEM100TN00).
# Phospho-ERK measurements were made using the Advanced Phospho-ERK1/2 (Thr202/Tyr204) HTRF kit by Cisbio (Codolet, France). Approximately 24 hours prior to the experiment, CHO-GPR139 cells were plated at 50,000 cells/well onto a 96-well plate and cultured as detailed above. Approximately 6 hours later, the media was aspirated, replaced with 50 μL serum-free media, and the cells were allowed to serum starve overnight. The day of the experiment, serial dilutions of the test compounds and controls were made in serum-free media at 2x final concentration. 50 μL of test compounds were added directly to the appropriate wells for 5 minute stimulation at 37 °C. At this point, the media and compounds were rapidly aspirated, lysis/blocking buffer was added, and cells were lysed on a shaker for 30 minutes at room temperature.
# as §2
# GPR139 [4] = target: T1, GPR139; details: proposed endogenous GPR139 ligands; cited from earlier work
Molecule,pEC50 ± S.E.M. (GPR139 [1]),EC50 (GPR139 [1]),Emax ± S.E.M. (GPR139 [1]),Note: Nonspecific ≥ concentration [2],pEC50 ± SEM (GPR139 [3]),EC50 (GPR139 [3]),Emax ± SEM (GPR139 [3]),EC50 (GPR139 [4])
CC(=O)c1c(C)[nH]c(C(=O)CN2C(=O)NC(C)(c3ccc4c(c3)OCCO4)C2=O)c1C (stereo not drawn) [AC123],6.13 ± 0.14,740 nM,104 ± 1%,Nonspecific ≥ 10 μM,,,,
CC1(c2ccc3c(c2)OCO3)NC(=O)N(CC(=O)c2ccc(Cl)s2)C1=O (stereo not drawn) [AC134],6.09 ± 0.15,800 nM,103 ± 5%,Nonspecific ≥ 40 μM,,,,
CC(C)COCCCNC(=O)NC(C)c1ccc(Cl)cc1Cl (stereo not drawn) [AC183],6.74 ± 0.19,180 nM,110 ± 10%,,7.41 ± 0.25,39 nM,64.38 ± 5.28,
C=CCN(CC=C)C(=O)CN1C(=O)NC(C)(c2ccc3c(c2)OCCO3)C1=O (stereo not drawn) [AC194],6.68 ± 0.02,210 nM,106 ± 4%,,7.41 ± 0.30,39 nM,62.32 ± 6.66,
CC1(c2ccc3c(c2)OCO3)NC(=O)N(CC(=O)N2CCc3ccccc32)C1=O (stereo not drawn) [AC197],6.71 ± 0.14,190 nM,103 ± 1%,,7.03 ± 0.14,,78.70 ± 4.05,
CCc1cccc2c(C(=O)CN3C(=O)NC(C)(c4ccc5c(c4)OCO5)C3=O)c[nH]c12 (stereo not drawn) [AC206],6.42 ± 0.06,380 nM,94 ± 3%,Nonspecific ≥ 100 μM,,,,
CC1Cc2ccccc2N1C(=O)CN1C(=O)NC(C)(c2ccc3c(c2)OCCO3)C1=O (stereo not drawn) [AC208],6.05 ± 0.60,880 nM,134 ± 26%,Nonspecific ≥ 30 μM,,,,
CCCCC/C=C/C/C=C/CCCCCCCC(=O)NC(C)c1ccccc1 (stereo not drawn) [AC223],,,,Nonspecific ≥ 50 μM,,,,
COc1cc(OC)cc(C(=O)NN2C(=O)NC(C)(c3ccccc3)C2=O)c1 (stereo not drawn) [AC224],7.03 ± 0.02,90 nM,106 ± 1%,,7.51 ± 0.28,31 nM,69.37 ± 8.01,
COc1cccc(C(=O)CN2C(=O)NC(C)(c3ccc(Cl)cc3)C2=O)c1 (stereo not drawn) [AC225],6.56 ± 0.05,280 nM,120 ± 5%,Nonspecific ≥ 10 μM,,,,
"ACTH: adrenocorticotropic hormone, proposed endogenous GPR139 ligand (SYSMEHFRWGKPVGKKRRPVKVYPNGAEDESAEAFPLEF; Corticotropin; UniProt P01189 138-176, looked up)",,,,,,,,2100 nM
